Legend:
Type in all cases: cell-based, human
[1] = system: platelet integrin receptor; experiment: Platelet spreading on immobilized fibrinogen and vWF; conditions: control plasma platelets and ES-PLTs on fibrinogen, stimulated with agonist
Procedure: Chamber slides with microtiter wells (Nalgen Nunc, Rochester, N.Y.) were coated with […] fibrinogen (Sigma) in 0.1M NaHCO3 (pH 8.3) at 4° C. overnight. Washed human peripheral platelets or hESC-platelets (1×10^7/mL) were allowed to adhere and spread on fibrinogen-coated wells at 37° C. for 90 minutes. In some samples, platelets were preincubated with an integrin antagonist, RGDS peptide, for 5 minutes before loading. In other samples, platelets were mixed with ADP (10 μM) or thrombin (1 U/ml) (Sigma-Aldrich, St Louis, Mo.), and immediately loaded on to fibrinogen-coated wells. […] Adherent platelets were viewed with an Olympus BX51 fluorescence microscope (MVI, Avon, Mass.) using a PlanApo lens at 100×/1.40 oil objective. […]
Integrin outside-in signaling functional property in ES-PLTs was further assessed by spreading assay on immobilized fibrinogen on glass slides. […]
Chamber slides with microtiter wells (Nalgen Nunc, Rochester, N.Y.) were coated with 100 μg/mL fibrinogen or vWF ([…]) (Sigma-Aldrich, St Louis, Mo.) in 0.1M NaHCO3 (pH 8.3) at 4° C. overnight. […] Adherent platelets were viewed with an Olympus BX51 fluorescence microscope using a PlanApo lens at 100×/1.40 oil objective. […]

hESC-PLTs = experiment: CD41a/CD42b expression on hESC-PLTs generated under feeder-free conditions (FACS); conditions: GM6001 100 μM during late stage of differentiation
Procedure: To examine whether functional platelets were generated under feeder-free conditions, the inventors examined CD41a/CD42b expression on hESC-derived platelets (hESC-PLTs) by FACS analyses. […] However, less than 5% of these hESC-PLTs were CD42b positive. […] Supplement of GM6001 (100 μM) during late stage of human ESC-PLTs differentiation increased CD41a and CD42b double positive hESC-PLTs to about 15%. The function of feeder-free generated hESC-PLTs was assessed by integrin dependent spreading assay on immobilized fibrinogen and vWF. Anti-human CD41a antibody and DAPI staining were used to identify platelets.
Hemangioblast/BC generation from hESC lines (HuES-3, H7 [WA07], MA01, and MA09) was performed as previously reported^17:20. BCs from day 6 to 8 cultures were purified and plated (1 to 5×10^5/ml) in Stemline II media supplemented with 50 ng/ml TPO, 20 ng/ml SCF and 20 ng/ml IL-11 (Peprotech) to induce BC differentiation toward MKs. Half of the MK culture media was replaced with fresh media every 2 or 3 days. […]
Cells from blast cultures or MK cultures are monitored routinely by flow cytometry analyses on FACSCalibur (Becton Dickinson) or Accuri C6 Cytometer (Accuri Cytometers). […] The samples were then analyzed with FACSCalibur, and data analyzed using Cellquest or Flowjo software. […] Cellular DNA content was analyzed on an Accuri C6 cytometer.

[2] = system: CD41a+ megakaryocytes from hESC derived BCs; experiment: Megakaryocyte (MK) differentiation/expansion culture from hESC derived blast cells, CD41a+ cell count; conditions: for yields / expansion of CD41a+ megakaryocytes: serum-free Stemline II MK culture of day 6 to 8 BCs, factors compared to TPO and SCF only, 4 day liquid culture
Procedure: BCs from day 6 to 8 blast cultures were purified and plated (1 to 5×10^5/ml) in Stemline II media supplemented with 50 ng/ml TPO, 20 ng/ml SCF and other cytokines to induce BC differentiation toward MKs. Half of the MK culture media was replaced with fresh media every 2 or 3 days.
In order to further direct the differentiation of megakaryocytes, day 6 to day 8 BCs from methylcellulose semi-solid cultures were harvested and then resuspended in serum-free media, i.e., Stemline II supplemented with cytokines for MK culture. The cell count of CD41a+ cells was used as readout to determine the expansion megakaryocytes during the suspension culture, which was calculated by multiplying the percentage of CD41a+(FACS) and total live cell count (Trypan blue exclusion). […] A panel of cytokines and factors were also tested in order to achieve high purity and the total yield of megakaryocytes from BCs. These factors including IL9 and BMP4 were previously reported as megakaryocyte promoting factors in other systems^21:22.
Certain factors, however, did slightly increase the percentage of CD41+ cells (not shown).

[3] = system: hESC derived blast cells (BCs); experiment: Blast culture, percentage of CD41a+ cells by FACS; conditions: for percentage of CD41a+ cells at the end of blast culture: TPO 100 ng/ml and SCF 50 ng/ml together, second phase of EB formation and blast colony growth
Procedure: The procedure for EB formation and BC generation were performed as previously reported^17:19. In brief, hESCs at 70% confluency were dissociated by 0.05% trypsin and plated in Ultra-Low dishes (Corning, N.Y.) with Stemline II (Sigma) medium supplemented with BMP-4, VEGF (50 ng/ml). Half of the medium was replaced after 48 hours with fresh medium containing the same cytokines plus bFGF 20 ng/ml, SCF, Flt3 ligand (FL) and Tpo (50 ng/ml each, R&D System). On day 4, EBs were collected and dissociated by 0.05% trypsin. Single-cell suspensions were obtained by passing the cells through 22-gauge needle and through a 40 μm cell strainer, collected by centrifugation, and resuspended in Stemline II media. Live cells were counted by trypan blue exclusion, and 1 to 2×10^5/ml were mixed with blast colony growth medium (BGM) as previously described, and plated in Ultra-Low dishes. Blast colonies were observed 3-4 days after plating, followed by rapid expansion.
Cells from blast cultures or megakaryocyte cultures are monitored routinely by flow cytometry analyses on FACS Caliber. Fluorochrome conjugated antibodies for lineage markers, CD41a, CD42a, CD42b and CD235a (BD Biosciences) were used to characterize the megakaryocyte and erythroid lineages. Antibodies were freshly prepared (1:100 dilution for CD42a and CD42b antibodies; 1:250 dilution for CD41a antibody; 1:2000 for CD235a antibody) in PBS with 5% new born calf serum. Typically 1 to 2×10^5 cells were used for antibody labeling. Cells were stained in 100 μl antibody cocktail for 1 hour on ice, then washed twice with buffer, and resuspended in 250 μl buffer supplemented with 1 μg/ml propidium iodide. To detect the expression level of HLA-ABC, platelets were incubated with a fluorescein isothiocyanate (FITC)-conjugated antihuman HLA-ABC antibody or FITC-conjugated mouse immunoglobulin G (IgG) as a control. The samples were then analyzed using a flow cytometer (FACSCalibur, Becton Dickinson), and data were analyzed using Cellquest or Flowjo software. Cell sorting was performed on BD FACS Aria system at UMASS Medical School Core Facility. […]

Molecule: Nc1ncnc2c1ncn2[C@@H]1O[C@H](COP(=O)(O)OP(=O)(O)O)[C@@H](O)[C@H]1O [ADP]
- lamellipodia and actin stress fiber formation [1]: enhanced

Molecule: CNC(=O)[C@H](Cc1c[nH]c2ccccc12)NC(=O)[C@@H](CC(=O)NO)CC(C)C [GM6001]
- CD41a and CD42b double positive hESC-PLTs (hESC-PLTs): about 15%

Molecule: C[C@@H](N)[C@H]1CC[C@H](C(=O)Nc2ccncc2)CC1 [Y27632]
- CD41+ cell count at the end of 4 day culture ([2]; 10 μM during 4 day MK culture): reduced
- percentage of polyploid cells ([2]; 10 μM during 4 day MK culture): dramatically increased

Molecule: IL9: previously reported megakaryocyte promoting factor
- yields / expansion of CD41a+ megakaryocytes [2]: did not show obvious effects

Molecule: IL 6: cytokine tested in MK culture
- yields / expansion of CD41a+ megakaryocytes [2]: slightly increased

Molecule: SCF: cytokine in MK culture media
- percentage of CD41a+ cells at the end of blast culture [3]: increased
- yields / expansion of CD41a+ megakaryocytes [2]: significantly increased

Molecule: TPO: cytokine in MK culture media
- percentage of CD41a+ cells at the end of blast culture [3]: increased
- yields / expansion of CD41a+ megakaryocytes [2]: not sufficient

Molecule: VEGF
- yields / expansion of CD41a+ megakaryocytes [2]: slightly increased

Molecule: bFGF: growth factor tested in MK culture
- yields / expansion of CD41a+ megakaryocytes [2]: slightly increased

Molecule: thrombin
- lamellipodia and actin stress fiber formation [1]: enhanced

B1: IL11: cytokine reported to enhance expansion and maturation of megakaryocytes (protein, UniProt P20809 22-199, looked up)
Interleukin-11: PGPPPGPPRVSPDPRAELDSTVLLTRSLLADTRQLAAQLRDKFPADGDHNLDSLPTLAMSAGALGALQLPGVLTRLRADLLSYLRHVQWLRRAGGSSLKTLEPELGTLQARLDRLLRRLQLLMSRLALPQPPPDPPAPPLAPPSSAWGGIRAAHAILGGLHLTLDWAVRGLLLLKTRL
- ratio of CD41a+ cells in day 6 to 8 blast cultures ([3]; IL-11 20 ng/ml in BGM medium): further increased
- yields / expansion of CD41a+ megakaryocytes [2]: slightly increased

B2: BMP4: previously reported megakaryocyte promoting factor (protein, UniProt P12644 293-408, looked up)
Bone morphogenetic protein 4: SPKHHSQRARKKNKNCRRHSLYVDFSDVGWNDWIVAPPGYQAFYCHGDCPFPLADHLNSTNHAIVQTLVNSVNSSIPKACCVPTELSAISMLYLDEYDKVVLKNYQEMVVEGCGCR
- yields / expansion of CD41a+ megakaryocytes [2]: did not show obvious effects

Source: US9988603B2, “Large scale generation of functional megakaryocytes and platelets from human embryonic stem cells under stromal-free conditions” (Stem Cell & Regenerative Medicine International, priority 2009, dated 2018)
